The experiment deals with Plasmodium berghei. The experiment is described as follows: Luciferase/luciferin-expressing antifolate-resistant parasites were used to infect a culture of HepG2 cells that were pre-incubated with compounds. Infected hepatocytes emit light due to the luciferase reaction. Assay results are presented as the percent inhibition of light emission compared to control. […]. It counts as functional. The settings on record: sporozoite; for IC90: read-out: LUCIFERASE INFECTION ASSAY - IC90.

The mark [1] stands for this setting: read-out: LUCIFERASE INFECTION ASSAY - IC50.

From ChEMBL document CHEMBL4483862, “Open-source discovery of chemical leads for next-generation chemoprotective antimalarials” (2018) come the findings set out here.

Some results are limits rather than exact numbers.

Broadly, the IC50 is the midpoint of a concentration-inhibition curve. The term IC90 denotes the concentration at which the effect reaches the 90% level. With `Cc1ccc(S(=O)(=O)N(Cc2ccccc2Cl)c2ccc(Br)cc2C(=O)c2ccccc2)cc1`, the IC90 is above 5.95 µM. Further, the IC50 (FFLUC_HILL_SLOPE 4.75, FFLUC_R_SQUARED 0.66, PBLUC_HILL_SLOPE 8.83, PBLUC_R_SQUARED 0.156, read-out: LUCIFERASE INFECTION ASSAY - IC50) came to 5.41 µM.
Regarding `COCC(C)n1c(C)cc(C(=O)COC(=O)c2cccn2C)c1C` (configuration not stated), the IC90 came out at 6.18 µM. For the same molecule, the IC50 under setting [1] worked out at 1.82 µM.
For the molecule `O=c1[nH]nc(CSc2ccccn2)c2ccccc12`, the concentration for an effect of 90% (IC90) was above 12.3 µM. The IC50 (PBLUC_HILL_SLOPE 1.43, PBLUC_R_SQUARED 0.267, read-out: LUCIFERASE INFECTION ASSAY - IC50) was 10 µM.
On to `COc1ccc(-c2csc3ncnc(NCc4ccc(-n5ccnc5)nc4)c23)cc1`, for which the concentration for an effect of 90% (IC90) is 10 µM. Also, the IC50 (HEPG2TOX_HILL_SLOPE 2.62, HEPG2TOX_R_SQUARED 0.957, PBLUC_HILL_SLOPE 10.9, PBLUC_R_SQUARED 0.671, read-out: LUCIFERASE INFECTION ASSAY - IC50) worked out at 8.17 µM.
Consider `Cc1ccc2c(c1)nc1n2CN(CCN2CCOCC2)CN1Cc1ccccc1`, for which the IC90 worked out at 1.1 µM. The IC50 (HEPG2TOX_HILL_SLOPE 1.27, HEPG2TOX_R_SQUARED 0.847, PBLUC_HILL_SLOPE 11.9, PBLUC_R_SQUARED 0.472, read-out: LUCIFERASE INFECTION ASSAY - IC50) stood at 0.911 µM.
As to `CN1C/C(=C\c2ccccc2)C(=O)/C(=C/c2ccccc2)C1`, the 90% effect concentration (IC90) was above 11.4 µM. Besides, the half-maximal inhibitory concentration (IC50) under setting [1] was above 11.4 µM.
Consider `CCC(C)NCCCCOc1cc(C(C)C)ccc1C` (configuration not stated), for which the concentration for an effect of 90% (IC90) was above 10 µM. Also, under “PBLUC_HILL_SLOPE 11.7, PBLUC_R_SQUARED 0.0741, read-out: LUCIFERASE INFECTION ASSAY - IC50”, the IC50 is above 10 µM.
In the case of `Cc1c(-c2ccccc2)sc(N)c1C#N`, the IC90 is above 15.4 µM. The IC50 (HEPG2TOX_HILL_SLOPE 1.71, HEPG2TOX_R_SQUARED 0.831, PBLUC_HILL_SLOPE 15.7, PBLUC_R_SQUARED 0.066, read-out: LUCIFERASE INFECTION ASSAY - IC50) stood at 14.9 µM.
As for `O=c1c2ccccc2sc2nc(-c3ccccc3)n(Cc3ccccc3)c(=O)c12`, the 90% effect concentration (IC90) was above 8.32 µM. Besides, the IC50 under setting [1] is above 8.32 µM.
For `O=C(Nc1nc2ccccc2[nH]1)c1oc2ccccc2c1CSCc1ccccc1`, the concentration for an effect of 90% (IC90) was found to be 5.1 µM. The IC50 (HEPG2TOX_HILL_SLOPE 3.05, HEPG2TOX_R_SQUARED 0.924, PBLUC_HILL_SLOPE 8.31, PBLUC_R_SQUARED 0.524, read-out: LUCIFERASE INFECTION ASSAY - IC50) is 3.92 µM.
`CC1C(OC(=O)c2ccc(CS(C)(=O)=O)cc2)CC2CC1C2(C)C` (configuration not stated): the 90% effect concentration (IC90) is above 10 µM. Besides, under setting [1], the IC50 is above 10 µM.
For the molecule `CN(C)CCNC(=O)c1cccc(-c2cnc3c(NC=O)cc(-c4cccc(C(F)(F)F)c4)cn23)c1`, the 90% effect concentration (IC90) was above 6.66 µM. In addition, the IC50 under setting [1] was above 6.66 µM.
For the molecule `COc1cc(OC)c(C(=O)/C=C/c2cccc(C#N)c2)cc1Cl`, the concentration for an effect of 90% (IC90) amounted to 4.08 µM. The IC50 (HEPG2TOX_HILL_SLOPE 2.22, HEPG2TOX_R_SQUARED 0.565, PBLUC_HILL_SLOPE 10.9, PBLUC_R_SQUARED 0.489, read-out: LUCIFERASE INFECTION ASSAY - IC50) was determined as 3.33 µM.
Turning to `Cn1nc(C(F)(F)F)cc1-c1ccc(NC(=O)Nc2cccc(C(F)(F)F)c2)s1`, the concentration for an effect of 90% (IC90) is above 7.6 µM. For the same molecule, the IC50 (PBLUC_HILL_SLOPE 15.6, PBLUC_R_SQUARED 0.0592, read-out: LUCIFERASE INFECTION ASSAY - IC50) came out at 7.44 µM.
In the case of `Cc1nn2c(NCCN(C)C)cc(C(C)C)nc2c1-c1ccccc1`, the 90% effect concentration (IC90) is above 9.78 µM. In addition, the half-inhibitory concentration (IC50) under setting [1] was above 9.78 µM.
With `c1ccc2cc(OCCNc3ncnc4sccc34)ccc2c1`, the IC90 worked out at 3.89 µM. Also, where the note is “HEPG2TOX_HILL_SLOPE 0.735, HEPG2TOX_R_SQUARED 0.741, PBLUC_HILL_SLOPE 1.1, PBLUC_R_SQUARED 0.73, read-out: LUCIFERASE INFECTION ASSAY - IC50”, the concentration for half-maximal inhibition (IC50) is 0.524 µM.
As to `COc1cc(-c2cc3c(cn2)nc(NCc2cccc(C)c2)n3C)cc(OC)c1OC`, the IC90 is above 10 µM. Also, the IC50 under setting [1] was 8.23 µM.
In the same order, the values of `Cc1cc(=O)n2nc(COC(=O)c3ccccc3Nc3ccccc3)sc2n1` are above 10 µM and above 10 µM.
In the same order, the values of `COc1cccc(-c2ccnc3n[nH]c(-c4cccc(C(F)(F)F)c4)c23)c1` are above 10 µM and above 10 µM.
Taken in the same sequence, the figures for `O=C(NCC1COc2ccccc2O1)c1cccc(S(=O)(=O)N2CCC(Cc3ccccc3)CC2)c1` (configuration not stated) were above 10 µM and above 10 µM.
As for `CC1CN(CC(O)COCc2ccc(Cl)cc2)CCN1CC(O)COCc1ccc(Cl)cc1` (configuration not stated), the concentration for an effect of 90% (IC90) is above 10 µM. In addition, for the setting “HEPG2TOX_HILL_SLOPE 0.385, HEPG2TOX_R_SQUARED 0.947, PBLUC_HILL_SLOPE 12.7, PBLUC_R_SQUARED 0.144, read-out: LUCIFERASE INFECTION ASSAY - IC50”, the IC50 was 9.06 µM.
Regarding `CC(c1nc(N)nc(N(C)C)n1)N(C)Cc1ccc(-c2ccc(Br)cc2)o1` (configuration not stated), the concentration for an effect of 90% (IC90) was above 10 µM. For the same molecule, under setting [1], the half-inhibitory concentration (IC50) is above 10 µM.
For the molecule `COc1cccc(/C=N/NC(=O)C2CCCN(C(=S)NNC3CC4C=CC3C4)CC2)c1O` (configuration not stated), the IC90 is above 7.21 µM. Further, for the setting “PBLUC_HILL_SLOPE 0.853, PBLUC_R_SQUARED 0.602, read-out: LUCIFERASE INFECTION ASSAY - IC50”, the half-maximal inhibitory concentration (IC50) was found to be 1.47 µM.
For the molecule `O=S(=O)(Oc1ccc2oc3ccccc3c2c1)c1ccccc1F`, the IC90 is above 10 µM. Under setting [1], the concentration for half-maximal inhibition (IC50) was above 10 µM.
For the molecule `COc1cccc(-c2cn3c(-c4ccc(CO)cc4)cnc3cn2)c1F`, the 90% effect concentration (IC90) is above 9.45 µM. Besides, the IC50 under setting [1] was determined as 8.82 µM.
In the same order, the values of `Cc1cc(C)cc(-n2c(SCc3nc4ccccc4n3C(F)F)nc3ccccc3c2=O)c1` are above 10 µM and above 10 µM.
Turning to `Cc1ccc(S(=O)(=O)Nc2ccc(Nc3nccn4c(-c5ccc(F)cc5)cnc34)cc2)cc1`, the IC90 was found to be 4.49 µM. The IC50 (PBLUC_HILL_SLOPE 1.86, PBLUC_R_SQUARED 0.706, read-out: LUCIFERASE INFECTION ASSAY - IC50) amounted to 1.37 µM.
With `O=C(Cn1ncc(Cl)c(Cl)c1=O)NCC(=O)Nc1ccc(F)c(F)c1F`, the IC90 amounted to 6.18 µM. The 50% inhibitory concentration (IC50) (HEPG2TOX_HILL_SLOPE 18.2, HEPG2TOX_R_SQUARED 0.93, PBLUC_HILL_SLOPE 2.22, PBLUC_R_SQUARED 0.782, read-out: LUCIFERASE INFECTION ASSAY - IC50) was found to be 2.3 µM.
As for `CN(CCOC(=O)Nc1cc(Cl)cc(Cl)c1)c1ncc(C(F)(F)F)cc1Cl`, the IC90 was above 7.46 µM. Also, the IC50 under setting [1] is above 7.46 µM.
As for `CC(C)CCN1C(=O)N(C(C)C)C(=O)C12CCN(Cc1c[nH]c3ccccc13)CC2`, the IC90 was above 8.04 µM. Under “HEPG2TOX_HILL_SLOPE 1.06, HEPG2TOX_R_SQUARED 0.491, PBLUC_HILL_SLOPE 3.87, PBLUC_R_SQUARED 0.243, read-out: LUCIFERASE INFECTION ASSAY - IC50”, the IC50 was above 8.04 µM.
As to `Cn1c(-c2ccsc2)cc2c(Nc3ccc(Oc4ccccc4)cc3)nccc21`, the concentration for an effect of 90% (IC90) turned out to be 3.44 µM. Moreover, the IC50 (HEPG2TOX_HILL_SLOPE 11.7, HEPG2TOX_R_SQUARED 0.553, PBLUC_HILL_SLOPE 10.6, PBLUC_R_SQUARED 0.752, read-out: LUCIFERASE INFECTION ASSAY - IC50) turned out to be 2.8 µM.
Consider `C=C1N(C)c2ccc(NC(=O)c3ccccc3)cc2C1(C)C`, for which the IC90 was found to be 3.46 µM. The IC50 (FFLUC_HILL_SLOPE 13, FFLUC_R_SQUARED 0.522, HEPG2TOX_HILL_SLOPE 2.51, HEPG2TOX_R_SQUARED 0.97, PBLUC_HILL_SLOPE 14.6, PBLUC_R_SQUARED 0.431, read-out: LUCIFERASE INFECTION ASSAY - IC50) amounted to 2.98 µM.
On to `COc1cc2c(cc1OC)C(c1ccccc1C(F)(F)F)CC(=O)N2` (configuration not stated), for which the 90% effect concentration (IC90) is above 9.39 µM. Further, the 50% inhibitory concentration (IC50) (PBLUC_HILL_SLOPE 2.57, PBLUC_R_SQUARED 0.0741, read-out: LUCIFERASE INFECTION ASSAY - IC50) was 7.98 µM.
Consider `O=C(c1cnc(Nc2cccc(Oc3ccccc3)c2)[nH]1)c1ccccc1F`, for which the 90% effect concentration (IC90) is 3.36 µM. For the same molecule, the IC50 (HEPG2TOX_HILL_SLOPE 2.89, HEPG2TOX_R_SQUARED 0.712, PBLUC_HILL_SLOPE 12, PBLUC_R_SQUARED 0.715, read-out: LUCIFERASE INFECTION ASSAY - IC50) was determined as 2.8 µM.
As to `CCn1c(C)nc2cc(C(=O)NNC(=O)c3cc(=O)[nH]c4ccccc34)ccc21`, the IC90 is above 10 µM. For the same molecule, under setting [1], the IC50 is above 10 µM.
As to `Cc1ccc(N2CC(C(=O)Nc3cc(C4CC4)n[nH]3)CC2=O)cc1` (configuration not stated), the IC90 turned out to be 2.23 µM. The 50% inhibitory concentration (IC50) (HEPG2TOX_HILL_SLOPE 2.65, HEPG2TOX_R_SQUARED 0.943, PBLUC_HILL_SLOPE 2.62, PBLUC_R_SQUARED 0.892, read-out: LUCIFERASE INFECTION ASSAY - IC50) was 0.963 µM.
As for `COc1ccc(Nc2c(Cl)cc(OC)cc2Cl)cc1`, the 90% effect concentration (IC90) stood at 3.85 µM. The concentration for half-maximal inhibition (IC50) (HEPG2TOX_HILL_SLOPE 2.37, HEPG2TOX_R_SQUARED 0.991, PBLUC_HILL_SLOPE 4.31, PBLUC_R_SQUARED 0.544, read-out: LUCIFERASE INFECTION ASSAY - IC50) came to 2.31 µM.
Regarding `CC1CCC(C(C)C)C(OCC(=O)NCc2ccc(NC(=O)c3ccco3)cc2)C1` (configuration not stated), the 90% effect concentration (IC90) was above 10 µM. For the same molecule, where the note is “PBLUC_HILL_SLOPE 3.59, PBLUC_R_SQUARED 0.694, read-out: LUCIFERASE INFECTION ASSAY - IC50”, the IC50 came to 6.09 µM.
In the case of `Cc1ccc(Oc2cccc(F)c2C#N)cc1`, the IC90 was above 14.5 µM. In addition, the IC50 under setting [1] was above 14.5 µM.
As for `Cc1ccc(S(=O)(=O)c2nc(-c3ccccc3)oc2S(=O)(=O)CC(=O)NC(C)C)cc1`, the concentration for an effect of 90% (IC90) is above 10 µM. Moreover, the half-inhibitory concentration (IC50) under setting [1] is above 10 µM.
On to `Cc1nc(NCCSc2nccn2C)c2c(-c3ccccc3)csc2n1`, for which the 90% effect concentration (IC90) was above 10 µM. Moreover, the 50% inhibitory concentration (IC50) under setting [1] was above 10 µM.
